Test results reported in publication PMC6345968, “Structural basis for species-selective targeting of Hsp90 in a pathogenic fungus” (Nature Communications, 2019).

Tested on: Raw264.7 macrophages
Assay: Phagocytosis of GFP C. albicans by macrophages, flow cytometry
Assay type: cell-based, mouse
Conditions: 2 h pre-treatment
Description: Compromise of host immune function and other target-related toxicities preclude the use of non-species-selective Hsp90 inhibitors in the treatment of fungal infections. Host defense against invasive infection relies heavily on the ingestion and destruction of C. albicans by innate immune cells, such as macrophages. […] After an additional two hours, phagocytosis of the fluorescently labeled fungi was measured by flow cytometry. […] This Hsp90-dependent morphogenetic program has an important role in the organism’s virulence and interactions with host immune effectors such as macrophages.
The ingestion of GFP-marked C. albicans CaCi-2 (CaLC867, Table S4) by mouse macrophages was monitored using flow cytometry. Raw264.7 macrophage cultures were pre-treated with various concentrations of Hsp90 inhibitors for 2 h at 37 °C and then infected with fungus at a multiplicity of infection of ~2 for an additional 2 h. Wells were harvested by trypsinization and resultant cell suspensions incubated with Guava ViaCount reagent per manufacturer’s recommendation (Millipore Sigma, Cat #4000-0040). Red fluorescent signal was used to identify macrophages while green fluorescent signal identified the fungus. Dual positive (red and green) events with appropriate forward- and side-scatter parameters were quantitated as representative of ingestion of fungus by a macrophage. […]

COc1ccc(CON=C2C=CC=CC3OC3CC(C)OC(=O)c3c(O)cc(O)cc3C2)cc1 (stereo not shown) [CMLD013075]
effect on engulfment of C. albicans: Neither compound impaired engulfment
